Assay results as given in ChEMBL document CHEMBL1201862, “PubChem BioAssay data set” (2004).
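Five concentrations, 48 hours, 96-well plates. GI50 is the concentration that inhibits growth by half.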 The source made the active and inactive calls. No stated cut-off is given here; in the data, active = GI50 up to about 1.1 µM and inactive = higher.

Columns and labels:
Assay in all cases: growth of human tumour cells (NCI), 48 h
A549 = test system: A549
ACHN = test system: ACHN
CAKI-1 = test system: CAKI-1
COLO 205 = test system: COLO 205
HCC 2998 = test system: HCC 2998
HCT-116 = test system: HCT-116
HT-29 = test system: HT-29
IGROV-1 = test system: IGROV-1
Malme-3M = test system: Malme-3M
OVCAR-8 = test system: OVCAR-8
SF-539 = test system: SF-539
SN12C = test system: SN12C
U-251 = test system: U-251
UO-31 = test system: UO-31
HCT-15 = test system: HCT-15

SMILES	GI50 (A549)	GI50 (ACHN)	GI50 (CAKI-1)	GI50 (COLO 205)	GI50 (HCC 2998)	GI50 (HCT-116)	GI50 (HT-29)	GI50 (IGROV-1)	GI50 (Malme-3M)	GI50 (OVCAR-8)	GI50 (SF-539)	GI50 (SN12C)	GI50 (U-251)	GI50 (UO-31)	GI50 (HCT-15) [µM]
CCCCCCCCCCCCNC1(C)CNCCCNCCNCCCNC1	1.76 µM (inactive)	1.78 µM (inactive)	1.87 µM (inactive)	1.74 µM (inactive)	1.79 µM (inactive)	1.32 µM (inactive)	1.58 µM (inactive)	1.07 µM (active)	2.01 µM (inactive)	1.55 µM (inactive)	1.87 µM (inactive)	1.67 µM (inactive)	1.08 µM (active)	2.29 µM (inactive)	–
Cc1ccc2[nH]c3c(C)c4c(c(C)c3c2c1)CN(C)C=C4	0.37 µM (active)	6.55 µM (inactive)	–	0.285 µM (active)	1.52 µM (inactive)	2.32 µM (inactive)	2.46 µM (inactive)	0.698 µM (active)	–	0.444 µM (active)	0.393 µM (active)	0.186 µM (active)	0.271 µM (active)	3.52 µM (inactive)	13.8
c1ccc2[nH]c(CNc3ccc(C4C[Se]N=N4)cc3)nc2c1 (stereo not drawn)	> 100 µM (inactive)	> 100 µM (inactive)	> 100 µM (inactive)	48.6 µM (inactive)	> 100 µM (inactive)	41.2 µM (inactive)	> 100 µM (inactive)	> 100 µM (inactive)	25.3 µM (inactive)	28.5 µM (inactive)	> 100 µM (inactive)	86.9 µM (inactive)	55.8 µM (inactive)	38.9 µM (inactive)	> 100
CCOc1ccc(NC(=O)CC2Sc3ccccc3NC2=O)cc1 (stereo not drawn)	> 100 µM (inactive)	49.8 µM (inactive)	89.9 µM (inactive)	41.1 µM (inactive)	38.2 µM (inactive)	25.2 µM (inactive)	85.5 µM (inactive)	> 100 µM (inactive)	97.5 µM (inactive)	21.1 µM (inactive)	45.3 µM (inactive)	> 100 µM (inactive)	45 µM (inactive)	47.2 µM (inactive)	56.8
CC(=O)Nc1ccc(-c2nnc(SCC(=O)Nc3ccc(Cl)cc3Cl)o2)cc1	> 100 µM (inactive)	44.6 µM (inactive)	> 100 µM (inactive)	28.6 µM (inactive)	> 100 µM (inactive)	40.5 µM (inactive)	31.8 µM (inactive)	37.1 µM (inactive)	20.7 µM (inactive)	38.2 µM (inactive)	33 µM (inactive)	20.2 µM (inactive)	18 µM (inactive)	94.8 µM (inactive)	38.5
COC(=O)N/N=C(\C)CC(=O)Nc1ccc(Cl)cc1	> 100 µM (inactive)	–	–	> 100 µM (inactive)	> 100 µM (inactive)	> 100 µM (inactive)	> 100 µM (inactive)	> 100 µM (inactive)	> 100 µM (inactive)	> 100 µM (inactive)	> 100 µM (inactive)	–	> 100 µM (inactive)	67.3 µM (inactive)	–
CN(C)C(=Nc1nc(N(C)C)s[s+]1)N(C)C	> 100 µM (inactive)	> 100 µM (inactive)	> 100 µM (inactive)	–	> 100 µM (inactive)	–	> 100 µM (inactive)	> 100 µM (inactive)	–	> 100 µM (inactive)	> 100 µM (inactive)	> 100 µM (inactive)	> 100 µM (inactive)	> 100 µM (inactive)	> 100
O=C1C=C(Nc2ccccc2C(=O)CC(=O)C(=O)Nc2cccc([N+](=O)[O-])c2)c2ccccc2C1=O	83.9 µM (inactive)	> 100 µM (inactive)	> 100 µM (inactive)	> 100 µM (inactive)	> 100 µM (inactive)	20.7 µM (inactive)	> 100 µM (inactive)	80.4 µM (inactive)	20.4 µM (inactive)	28 µM (inactive)	> 100 µM (inactive)	23.4 µM (inactive)	32.4 µM (inactive)	34.9 µM (inactive)	23.8
O=c1[nH]nc2c3n[nH]c(=O)n3c3ccccc3n12	> 100 µM (inactive)	> 100 µM (inactive)	> 100 µM (inactive)	> 100 µM (inactive)	> 100 µM (inactive)	> 100 µM (inactive)	> 100 µM (inactive)	> 100 µM (inactive)	> 100 µM (inactive)	> 100 µM (inactive)	69.8 µM (inactive)	> 100 µM (inactive)	> 100 µM (inactive)	49.3 µM (inactive)	> 100
N#CC1=C(c2ccccc2)NN(Cc2ccccc2)C(c2ccc(Cl)cc2)CC1=O (stereo not drawn)	18.2 µM (inactive)	23.3 µM (inactive)	30.1 µM (inactive)	36.1 µM (inactive)	–	18.7 µM (inactive)	17.3 µM (inactive)	–	–	–	–	–	17.3 µM (inactive)	–	22.9
COC(=O)/C(=C/CC(N=C(c1ccccc1)c1ccccc1)C(=O)OC)N=C(c1ccccc1)c1ccccc1 (stereo not drawn)	> 100 µM (inactive)	> 100 µM (inactive)	> 100 µM (inactive)	> 100 µM (inactive)	> 100 µM (inactive)	> 100 µM (inactive)	> 100 µM (inactive)	> 100 µM (inactive)	> 100 µM (inactive)	> 100 µM (inactive)	–	> 100 µM (inactive)	> 100 µM (inactive)	45.9 µM (inactive)	> 100
O=C1NCCS(=O)(=O)N[C@@H](CC2=CC=CCC2)C(=O)N2CCCC12 (stereo partly drawn)	> 100 µM (inactive)	> 100 µM (inactive)	–	> 100 µM (inactive)	> 100 µM (inactive)	> 100 µM (inactive)	> 100 µM (inactive)	> 100 µM (inactive)	> 100 µM (inactive)	> 100 µM (inactive)	> 100 µM (inactive)	> 100 µM (inactive)	> 100 µM (inactive)	> 100 µM (inactive)	> 100
COc1ccc(/C(=N/NC(N)=O)C(c2ccc(OC)cc2)C2C(=O)Oc3ccccc32)cc1 (stereo not drawn)	> 100 µM (inactive)	–	> 100 µM (inactive)	> 100 µM (inactive)	> 100 µM (inactive)	> 100 µM (inactive)	> 100 µM (inactive)	> 100 µM (inactive)	> 100 µM (inactive)	> 100 µM (inactive)	> 100 µM (inactive)	> 100 µM (inactive)	> 100 µM (inactive)	35 µM (inactive)	> 100
CSc1nc(NC2OC(COC(C)=O)C(OC(C)=O)C(OC(C)=O)C2OC(C)=O)c2c(n1)OCC2=O (stereo not drawn)	> 100 µM (inactive)	> 100 µM (inactive)	> 100 µM (inactive)	> 100 µM (inactive)	–	> 100 µM (inactive)	> 100 µM (inactive)	> 100 µM (inactive)	> 100 µM (inactive)	> 100 µM (inactive)	> 100 µM (inactive)	> 100 µM (inactive)	> 100 µM (inactive)	> 100 µM (inactive)	> 100
OC1(C23CC4CC(CC(C4)C2)C3)CSCC1(O)C12CC3CC(CC(C3)C1)C2 (stereo not drawn)	> 100 µM (inactive)	–	> 100 µM (inactive)	> 100 µM (inactive)	> 100 µM (inactive)	> 100 µM (inactive)	> 100 µM (inactive)	> 100 µM (inactive)	> 100 µM (inactive)	> 100 µM (inactive)	> 100 µM (inactive)	> 100 µM (inactive)	–	> 100 µM (inactive)	–
O=C(O)CC[C@H](NC(=O)c1ccc(-n2nc3ccc(=O)cc-3[nH]c2=O)cc1)C(=O)O	> 100 µM (inactive)	> 100 µM (inactive)	–	> 100 µM (inactive)	> 100 µM (inactive)	> 100 µM (inactive)	> 100 µM (inactive)	> 100 µM (inactive)	> 100 µM (inactive)	> 100 µM (inactive)	> 100 µM (inactive)	> 100 µM (inactive)	> 100 µM (inactive)	> 100 µM (inactive)	> 100
COC(OC)c1cc2c(cc1C(=O)[C@@]13CCC[C@@H]1NC(=O)O3)OCO2	–	> 100 µM (inactive)	> 100 µM (inactive)	–	–	> 100 µM (inactive)	> 100 µM (inactive)	73.5 µM (inactive)	22.6 µM (inactive)	> 100 µM (inactive)	> 100 µM (inactive)	> 100 µM (inactive)	> 100 µM (inactive)	60.3 µM (inactive)	–
CC1(C)COC2(OC1)C1=NS(=O)(=O)CC13CCC2C3(C)C (stereo not drawn)	> 100 µM (inactive)	> 100 µM (inactive)	> 100 µM (inactive)	> 100 µM (inactive)	–	> 100 µM (inactive)	> 100 µM (inactive)	> 100 µM (inactive)	> 100 µM (inactive)	> 100 µM (inactive)	> 100 µM (inactive)	> 100 µM (inactive)	> 100 µM (inactive)	> 100 µM (inactive)	> 100
Cc1nc(C(N)=S)sc1C(=O)/C=C/c1cccc(O)c1	> 100 µM (inactive)	56.6 µM (inactive)	> 100 µM (inactive)	> 100 µM (inactive)	> 100 µM (inactive)	–	> 100 µM (inactive)	> 100 µM (inactive)	> 100 µM (inactive)	> 100 µM (inactive)	> 100 µM (inactive)	> 100 µM (inactive)	> 100 µM (inactive)	> 100 µM (inactive)	> 100
CCn1c2ccccc2c(=O)c2c(OC)ccc(OC)c21	55.6 µM (inactive)	35.9 µM (inactive)	22.9 µM (inactive)	55.7 µM (inactive)	–	51.1 µM (inactive)	64.3 µM (inactive)	46.9 µM (inactive)	68.5 µM (inactive)	56.8 µM (inactive)	68.1 µM (inactive)	42.5 µM (inactive)	64.6 µM (inactive)	25.4 µM (inactive)	45.9
